The source of these data is ChEMBL document CHEMBL5634123, “Design and synthesis of 1H-benzo[d]imidazole selective HDAC6 inhibitors with potential therapy for multiple myeloma” (Eur J Med Chem, 2023).

Series [1] concerns RPMI-8226. In words: Induction of cell cycle arrest at G1 phase in human RPMI-8226 cells at 0.1 uM incubated for 24 hrs by PI staining based flow cytometry (reference value: 19.2 %). It counts as functional. Background: Flow cytometry measures light scatter and fluorescence of single cells or particles in a stream.
The next series deals with Histone deacetylase 1 (Homo sapiens, UniProt Q13547). In words: Inhibition of HDAC1 (unknown origin) preincubated for 10 mins followed by substrate addition measured for 1 hr by fluorescence based assay.
The next series has as its system HCCLM3. In words: Cytotoxicity against human HCCLM3 cells assessed as inhibition of cell viability incubated for 24 hrs by CCK8 assay. Type of series: functional, cell-based. The conditions noted are these: HCCLM3, 24 h. A general note: Tetrazolium dyes change colour on reduction, which living cells bring about.
Series [2] can be described thus: Toxicity in Balb/c nude mouse xenografted with human RPMI-8226 cells assessed as adverse effect on kidney at 10 to 40 mg/kg, po qd for 21 days administered consecutively by H and E staining based analysis. Type of series: organism-based. The conditions noted are these: in vivo, 504 h, dose 10-40 mg/kg, time 21 day.
For series [3], the system named is RPMI-8226. In words: Induction of apoptosis in human RPMI-8226 cells assessed as late apoptotic cells at 2.5 uM incubated for 24 hrs by Annexin V-FITC/PI staining based flow cytometry (reference value: 2.78 %). Type of series: functional.
Another series relates to HCT-116. In words: Cytotoxicity against human HCT-116 cells assessed as inhibition of cell viability incubated for 24 hrs by CCK8 assay. Type of series: functional, cell-based. The following applies: HCT-116, 24 h.
Series [4] concerns RPMI-8226. The experiment in a line: Induction of apoptosis in human RPMI-8226 cells assessed as necrotic cells at 0.5 uM incubated for 24 hrs by Annexin V-FITC/PI staining based flow cytometry (reference value: 0.90 %). Type of series: functional.
Series [5] concerns the target T1, Protein deacetylase HDAC6 (Homo sapiens) (UniProt Q9UBN7).
T1 sequence (whole entry): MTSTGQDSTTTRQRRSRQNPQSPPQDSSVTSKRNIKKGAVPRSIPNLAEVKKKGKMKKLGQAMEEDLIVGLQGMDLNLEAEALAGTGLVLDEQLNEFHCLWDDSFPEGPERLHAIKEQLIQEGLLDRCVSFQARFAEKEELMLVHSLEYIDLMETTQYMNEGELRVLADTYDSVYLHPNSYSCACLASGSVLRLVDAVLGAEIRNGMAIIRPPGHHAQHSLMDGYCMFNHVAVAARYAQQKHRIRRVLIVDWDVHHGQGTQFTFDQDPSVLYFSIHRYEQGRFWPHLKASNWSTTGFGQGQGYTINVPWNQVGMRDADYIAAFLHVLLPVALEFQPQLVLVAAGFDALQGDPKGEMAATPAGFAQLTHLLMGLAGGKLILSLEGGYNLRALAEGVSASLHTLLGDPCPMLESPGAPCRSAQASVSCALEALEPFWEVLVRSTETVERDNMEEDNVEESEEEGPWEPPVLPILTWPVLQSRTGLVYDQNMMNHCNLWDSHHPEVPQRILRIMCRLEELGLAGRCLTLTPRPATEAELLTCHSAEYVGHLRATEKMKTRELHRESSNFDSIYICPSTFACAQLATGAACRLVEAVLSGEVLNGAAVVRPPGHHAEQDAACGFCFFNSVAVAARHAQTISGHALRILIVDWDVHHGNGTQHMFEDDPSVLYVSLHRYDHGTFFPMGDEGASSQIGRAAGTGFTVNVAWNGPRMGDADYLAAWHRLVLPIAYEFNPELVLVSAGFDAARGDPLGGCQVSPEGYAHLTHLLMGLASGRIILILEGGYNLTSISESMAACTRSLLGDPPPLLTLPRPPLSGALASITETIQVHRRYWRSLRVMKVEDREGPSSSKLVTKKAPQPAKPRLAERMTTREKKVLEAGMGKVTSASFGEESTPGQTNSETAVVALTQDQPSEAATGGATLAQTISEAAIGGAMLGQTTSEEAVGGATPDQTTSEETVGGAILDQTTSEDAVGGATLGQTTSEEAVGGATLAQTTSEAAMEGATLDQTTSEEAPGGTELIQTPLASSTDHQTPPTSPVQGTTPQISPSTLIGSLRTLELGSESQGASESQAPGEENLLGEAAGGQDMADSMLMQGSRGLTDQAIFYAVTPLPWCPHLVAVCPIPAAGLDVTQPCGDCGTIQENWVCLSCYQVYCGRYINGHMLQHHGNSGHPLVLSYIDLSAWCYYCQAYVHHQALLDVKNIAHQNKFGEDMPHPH
The experiment in a line: Inhibition of HDAC6 in human RPMI-8226 cells assessed as increase in Ac-alpha-tubulin expression at 0.5 to 2.5 uM incubated for 24 hrs by Western blot analysis. Type of series: cell-based. The following applies: dose 0.5-2.5 µM. For orientation: Immunoblotting shows a protein as a band on a membrane.

The target of a further series is T2, Histone deacetylase 11 (Homo sapiens, UniProt Q96DB2).
T2 sequence (Q96DB2 whole entry): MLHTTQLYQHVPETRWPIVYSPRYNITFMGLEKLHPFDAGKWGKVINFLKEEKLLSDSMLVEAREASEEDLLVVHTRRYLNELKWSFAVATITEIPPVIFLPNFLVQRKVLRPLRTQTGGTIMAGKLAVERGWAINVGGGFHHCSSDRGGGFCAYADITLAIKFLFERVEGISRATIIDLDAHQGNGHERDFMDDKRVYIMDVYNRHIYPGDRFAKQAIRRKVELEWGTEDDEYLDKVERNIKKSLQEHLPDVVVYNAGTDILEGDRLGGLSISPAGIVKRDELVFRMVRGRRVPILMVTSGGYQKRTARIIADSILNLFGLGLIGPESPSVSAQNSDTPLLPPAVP
In words: Inhibition of HDAC11 (unknown origin) preincubated for 10 mins followed by substrate addition by fluorescence based assay.

In series [6] the test system is RPMI-8226. The experiment in a line: Induction of cell cycle arrest at G2 phase in human RPMI-8226 cells at 2.5 uM incubated for 24 hrs by PI staining based flow cytometry (reference value: 18.3 %). Type of series: functional.
For series [7], the system named is RPMI-8226. The experiment in a line: Effect on Ac-H4 expression in human RPMI-8226 cells at 0.1 to 2.5 uM incubated for 24 hrs by Western blot analysis. Type of series: functional, cell-based. The following applies: dose 0.1-2.5 µM.
Series [8] concerns RPMI-8226. In words: Induction of apoptosis in human RPMI-8226 cells assessed as necrotic cells at 2.5 uM incubated for 24 hrs by Annexin V-FITC/PI staining based flow cytometry (reference value: 0.90 %). Type of series: functional.
Series [9] is described as follows: Toxicity in Balb/c nude mouse xenografted with human RPMI-8226 cells assessed as adverse effect on serum ALT level at 10 to 40 mg/kg, po qd for 21 days administered consecutively. The following applies: in vivo, 504 h, dose 10-40 mg/kg, time 21 day. Type of series: organism-based.
Series [10] has as its target T1, Protein deacetylase HDAC6 (Homo sapiens). The experiment in a line: Inhibition of HDAC6 in human RPMI-8226 cells assessed as increase in Ac-H3 expression at 2.5 uM incubated for 24 hrs by Western blot analysis. Type of series: cell-based.
Series [11] can be described thus: Toxicity in Balb/c nude mouse xenografted with human RPMI-8226 cells assessed as adverse effect on liver at 10 to 40 mg/kg, po qd for 21 days administered consecutively by H and E staining based analysis. It counts as organism-based. The conditions noted are these: in vivo, 504 h, dose 10-40 mg/kg, time 21 day.
Series [12] concerns RPMI-8226. The experiment in a line: cells. The following applies: Homo sapiens, RPMI-8226, 24 h.
In series [13] the test system is RPMI-8226. In words: Induction of apoptosis in human RPMI-8226 cells assessed as viable cells at 2.5 uM incubated for 24 hrs by Annexin V-FITC/PI staining based flow cytometry (reference value: 90.98 %). It counts as functional. The following applies: read-out: Activity.

Molecules are shown by their SMILES. pIC50: −log10 of the molar value. The source made the active and inactive calls. The calls are words filed in the database; no cut-off is given here.

Chain of Histone deacetylase 1 (Q13547 whole entry): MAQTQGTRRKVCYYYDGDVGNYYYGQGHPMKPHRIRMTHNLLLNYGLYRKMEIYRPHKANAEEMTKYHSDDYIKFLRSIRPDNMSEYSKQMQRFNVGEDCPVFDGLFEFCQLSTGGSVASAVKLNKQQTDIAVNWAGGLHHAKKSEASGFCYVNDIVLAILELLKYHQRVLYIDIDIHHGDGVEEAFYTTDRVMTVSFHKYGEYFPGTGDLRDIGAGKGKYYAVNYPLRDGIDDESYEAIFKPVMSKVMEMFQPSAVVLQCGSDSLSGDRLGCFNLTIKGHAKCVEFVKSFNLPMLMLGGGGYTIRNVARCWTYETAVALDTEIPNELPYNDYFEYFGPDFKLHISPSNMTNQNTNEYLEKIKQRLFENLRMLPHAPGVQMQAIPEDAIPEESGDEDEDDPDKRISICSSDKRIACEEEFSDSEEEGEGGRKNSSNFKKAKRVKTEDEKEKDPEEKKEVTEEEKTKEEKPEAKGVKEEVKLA

Regarding `Cn1c([C@@H](Cc2ccccc2)NCc2ccccc2)nc2cc(C(=O)NO)ccc21`, the Activity is recorded as 18.2% with RPMI-8226 [1]; “Non-Toxic” in series [2]; 4.26% in the series on RPMI-8226 [3]; 0.53% in the series with RPMI-8226 [4]; 25.6% with RPMI-8226 [6]; 0.26% in the series on RPMI-8226 [8]. Further, the Activity result in series [9] and in series [11] was “Non-Toxic” throughout. Also, the pIC50 (usually the negative decadic logarithm of the IC50, by convention in mol/L) was 5.95 against Histone deacetylase 1; under 4.30 in the series with HCCLM3; 4.82 in the series with HCT-116; 6.01 against Histone deacetylase 11; 6.28 in the series on RPMI-8226 [12]. Also, the inhibition result in [5] and in series [10] was “Active” in each case. Moreover, the result in the series with RPMI-8226 [7] was inactive. The viability at 2.5 µM with RPMI-8226 [13] was found to be 76.5%.
